In patent US20260199212A1, “USE OF L-CARNOSINE AGAINST SOLAR ELASTOSIS” (SYMRISE AG, priority 2022, published 2026):

What was measured:
fibrillin-1 = assay: Fibrillin-1 immunostaining in the papillary dermis of skin explants, semi-quantified by image analysis; format: cell-based, human; details: after infrared irradiation
Description: (§1) Human skin explants of an average diameter of 12 mm (+1 mm) were prepared on an abdo-plasty coming from a person with a phototype II according to Fitz-patrick skin colour classification. The explants were kept in survival in BEM culture medium (BIO-EC's Explants Medium) at 37° C. in a humid, 5%-CO2 atmosphere.
(§2) Compositions A and B were applied at the rate of 2 μL per 1 cm^2 skin sample (~2 mg/cm^2) and spread using a small spatula on day 0, day 1, day 2, day 3 and day 6 (30 min before infrared irradiation exposure). […] The culture medium was half renewed (1 ml per well) on day 2, day 3 and day 6.
(§3) On day 6, the culture media of all the batches was replaced by HBSS (Hank's Balanced Saline Solution; 1 ml per explant). The batches IR, IR-C2, and IR-T were irradiated using a infrared lamp (Dr FISCHER 1000W, 235V 2500K; 760-3000 nm), for 1:24 h (720 J/cm^2; 140 mW/cm^2). The non-irradiated batches were kept in HBSS in the dark. […]
Nuclei have been post-stained with propidium iodide. The staining was assessed by microscopical observation and semi-quantified by image analysis. […]
Fibrillin-1 immunostaining was assessed by microscopical observation of skin sections with semi-quantification by image analysis using the software cellSens (Olympus).
(§4) Analysed zone: ROI including the papillary dermis.
(§5) Number of analysed images per batch: 9. […]

tropoelastin = assay: Tropoelastin immunostaining in the papillary dermis of skin explants, semi-quantified by image analysis; format: cell-based, human; details: when applying L-Carnosine
Description: as §1, §2, §3
Nuclei have been post stained with propidium iodide. The staining was assessed by microscopical observation and semi-quantified by image analysis. […]
Tropoelastin immunostaining was assessed by microscopical observation of skin sections with semi-quantification by image analysis using the software cellSens (Olympus).
as §4, §5

NCCC(=O)N[C@@H](Cc1cnc[nH]1)C(=O)O [L-Carnosine]
amount of fibrillin-1 in the dermis (fibrillin-1): strongly increase | amounts of elastin after infrared irradiation versus without infrared irradiation (tropoelastin): not significantly different
